Source: patent publication US8637237B2, “Methods, compositions, and systems for the identification of species-specific or developmental stage-specific insecticides” (The University of North Carolina at Greensboro, priority 2003, dated 2014)

Target: T1, EcRB1/DmUSPF2 (Drosophila melanogaster, UniProt P34021)
T1 construct: The plasmid encodes a version of EcRB1 that includes 878 amino acids, and deletes the F domain; expressed in transfected cells; host or cells: CHO (mammalian cells)
T1 sequence (P34021 1-878): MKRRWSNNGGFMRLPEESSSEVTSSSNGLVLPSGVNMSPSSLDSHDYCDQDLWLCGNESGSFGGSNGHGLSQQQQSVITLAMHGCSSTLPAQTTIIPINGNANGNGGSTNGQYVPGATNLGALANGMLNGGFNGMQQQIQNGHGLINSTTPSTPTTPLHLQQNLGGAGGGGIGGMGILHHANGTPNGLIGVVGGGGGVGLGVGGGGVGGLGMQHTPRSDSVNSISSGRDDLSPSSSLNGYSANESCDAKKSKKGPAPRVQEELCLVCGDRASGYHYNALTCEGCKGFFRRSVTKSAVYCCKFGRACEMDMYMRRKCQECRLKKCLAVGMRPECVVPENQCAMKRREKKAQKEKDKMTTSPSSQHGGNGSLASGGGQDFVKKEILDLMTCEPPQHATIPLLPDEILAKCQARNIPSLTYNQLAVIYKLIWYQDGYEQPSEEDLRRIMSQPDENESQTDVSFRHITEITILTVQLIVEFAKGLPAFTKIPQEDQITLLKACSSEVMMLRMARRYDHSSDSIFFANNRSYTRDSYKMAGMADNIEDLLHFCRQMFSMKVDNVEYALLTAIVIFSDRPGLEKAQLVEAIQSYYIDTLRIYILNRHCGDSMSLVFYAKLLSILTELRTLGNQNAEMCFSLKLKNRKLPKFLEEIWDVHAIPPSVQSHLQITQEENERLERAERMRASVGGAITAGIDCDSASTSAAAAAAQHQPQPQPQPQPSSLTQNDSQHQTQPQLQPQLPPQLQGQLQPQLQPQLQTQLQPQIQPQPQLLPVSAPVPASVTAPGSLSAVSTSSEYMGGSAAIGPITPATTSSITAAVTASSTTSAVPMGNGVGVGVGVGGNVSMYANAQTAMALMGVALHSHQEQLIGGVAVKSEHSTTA
T1 sequence (P20153 104-507 partner limits assumed): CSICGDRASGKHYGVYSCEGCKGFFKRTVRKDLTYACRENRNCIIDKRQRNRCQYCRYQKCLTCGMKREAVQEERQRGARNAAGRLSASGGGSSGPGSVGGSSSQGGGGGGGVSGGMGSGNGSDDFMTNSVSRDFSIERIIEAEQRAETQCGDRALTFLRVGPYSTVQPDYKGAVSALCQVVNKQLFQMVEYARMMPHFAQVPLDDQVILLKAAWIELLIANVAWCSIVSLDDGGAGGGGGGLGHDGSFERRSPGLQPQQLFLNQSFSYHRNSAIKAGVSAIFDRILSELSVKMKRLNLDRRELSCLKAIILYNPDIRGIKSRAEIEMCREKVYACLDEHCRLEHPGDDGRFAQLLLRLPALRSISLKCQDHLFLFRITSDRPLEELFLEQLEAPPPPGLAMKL
Experiment: Drosophila EcRB1 with Drosophila USPF2, luciferase reporter in mammalian cells (FIG. 6)
Format: cell-based
Conditions: for increase of the effect of 0.1 μM murA: with 0.1 μM murA
Experimental: Unless noted otherwise, 100 ng of each EcR and USP plasmid was transfected into 2 ml of cell culture medium. As noted above, a reporter gene carrying five tandem copies of the hsp27 ecdysone response element (Riddihough and Pelham, 1986) is attached to a constitutive thymidine kinase promoter and a luciferase reporter gene (pEcREtk-LUC) and cotransfected into the cells along with vectors expressing EcR, USP, and a constitutively active β-galactosidase gene with lipofection, following manufacturer's protocols. The subsequent measure of luciferase activity reflects ecdysteroid-inducible transcription.
The Drosophila EcR isoform vectors (A, B1, and B2) used for these experiments have been described previously (Mouillet et al, 2001). These vectors lack the F-domain, which is also not essential for in vivo function (Cherbas et al, 2003). Additionally, three different VP16-USP vectors were utilized. Construction is of the VP16-USP vectors is described below. As in the earlier study, hsp27-EcRE mediated transcriptional activity was measured by detecting the luminescence produced by luciferase in transfected cell extracts. Luciferase activity was normalized by transfection with a plasmid that constitutively expresses the β-galactosidase gene such that enzymatic activity correlated with cellular mass.
After a 4 hour transfection period, the hormone treatment was applied by diluting stock solutions of muristerone A (murA; Alexis Corporation, San Diego, Calif.), JHI (Scitech), JHIII (Sigma, St Louis, Mo.), and/or 20E (Sigma, St Louis, Mo.) in DMSO. The cells were harvested 24 hours after treatment and the contents of the cells extracted for performing the luciferase and β-galactosidase assays.

Structure (SMILES)	increase of the effect of 0.1 μM murA	stimulation of EcRB1/USPF2 complex (0.1 μM and 1.0 μM murA)
COC(=O)/C=C(\C)CC/C=C(\C)CC[C@H]1OC1(C)C [JHIII, juvenile hormone III]	increased	–
CC(C)=CCCC(C)=CCCC(C)=CC(=O)O [farnesoic acid]	increased	–
COC(=O)/C=C(\C)CC/C=C(\C)CCC=C(C)C [methyl farnesoate]	increased	–
CC(C)CC[C@@H](O)[C@](C)(O)[C@H]1CC[C@@]2(O)C3=CC(=O)[C@]4(O)C[C@@H](O)[C@@H](O)C[C@]4(C)[C@H]3[C@H](O)C[C@]12C [murA, muristerone A]	–	stimulated
